{"source": "PubChem BioAssay (NCI)", "note": "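How tested: cells in 96-well plates exposed to compound for 48 hours at five concentrations. TGI is the concentration that stops growth completely.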"}
{"system": "HOP-62 NSCLC", "experiment": "inhibition of tumour cell growth, NCI panel, 48 h", "units": {"TGI": "µM"}}
{"smiles": "N#CSC#Cc1ccc(C#CSC#N)cc1", "TGI": 39.3}
{"smiles": "Cc1cc(C)c(S(=O)(=O)N2CCCN(S(=O)(=O)c3c(C)cc(C)cc3C)OCCCON(S(=O)(=O)c3c(C)cc(C)cc3C)CCCN(S(=O)(=O)c3c(C)cc(C)cc3C)OCCCO2)c(C)c1", "TGI": "> 100"}
{"smiles": "O=C(CC(=O)Nc1cccc(C(=O)O)c1)Nc1cccc(C(=O)O)c1", "TGI": "> 100"}
{"smiles": "O=C(NCCCCCCNC(=O)c1cccc2ccccc12)Nc1cccc2ccccc12", "TGI": "> 100"}
{"system": "HOP-92 NSCLC", "experiment": "inhibition of tumour cell growth, NCI panel, 48 h", "units": {"TGI": "µM"}}
{"smiles": "CCC(C)(C)/C(CC(O)(C(F)(F)F)C(F)(F)F)=N\\O", "TGI": "> 100"}
{"smiles": "N#CSC#Cc1ccc(C#CSC#N)cc1", "TGI": 26}
{"smiles": "Cc1cc(C)c(S(=O)(=O)N2CCCN(S(=O)(=O)c3c(C)cc(C)cc3C)OCCCON(S(=O)(=O)c3c(C)cc(C)cc3C)CCCN(S(=O)(=O)c3c(C)cc(C)cc3C)OCCCO2)c(C)c1", "TGI": "> 100"}
{"smiles": "CC(C)C1OC23CCCCC2C(C#N)(C#N)C1(C#N)C(=N)O3", "note": "(configuration not stated)", "TGI": 35.1}
{"smiles": "NC(CCCCP(=O)(O)O)C(=O)O", "note": "(configuration not stated)", "TGI": "> 100"}
{"smiles": "O=C(CC(=O)Nc1cccc(C(=O)O)c1)Nc1cccc(C(=O)O)c1", "TGI": "> 100"}
{"smiles": "O=C(NCCCCCCNC(=O)c1cccc2ccccc12)Nc1cccc2ccccc12", "TGI": "> 100"}
{"system": "HS 578T breast", "experiment": "inhibition of tumour cell growth, NCI panel, 48 h", "units": {"TGI": "µM"}}
{"smiles": "CCC(C)(C)/C(CC(O)(C(F)(F)F)C(F)(F)F)=N\\O", "TGI": "> 100"}
{"smiles": "N#CSC#Cc1ccc(C#CSC#N)cc1", "TGI": 48.8}
{"smiles": "Cc1cc(C)c(S(=O)(=O)N2CCCN(S(=O)(=O)c3c(C)cc(C)cc3C)OCCCON(S(=O)(=O)c3c(C)cc(C)cc3C)CCCN(S(=O)(=O)c3c(C)cc(C)cc3C)OCCCO2)c(C)c1", "TGI": "> 100"}
{"smiles": "CC(C)C1OC23CCCCC2C(C#N)(C#N)C1(C#N)C(=N)O3", "note": "(configuration not stated)", "TGI": 42.3}
{"smiles": "NC(CCCCP(=O)(O)O)C(=O)O", "note": "(configuration not stated)", "TGI": "> 100"}
{"smiles": "O=C(CC(=O)Nc1cccc(C(=O)O)c1)Nc1cccc(C(=O)O)c1", "TGI": "> 100"}
{"smiles": "O=C(NCCCCCCNC(=O)c1cccc2ccccc12)Nc1cccc2ccccc12", "TGI": "> 100"}
{"system": "HT29 colon", "experiment": "inhibition of tumour cell growth, NCI panel, 48 h", "units": {"TGI": "µM"}}
{"smiles": "CCC(C)(C)/C(CC(O)(C(F)(F)F)C(F)(F)F)=N\\O", "TGI": "> 100"}
{"smiles": "N#CSC#Cc1ccc(C#CSC#N)cc1", "TGI": 42.1}
{"smiles": "Cc1cc(C)c(S(=O)(=O)N2CCCN(S(=O)(=O)c3c(C)cc(C)cc3C)OCCCON(S(=O)(=O)c3c(C)cc(C)cc3C)CCCN(S(=O)(=O)c3c(C)cc(C)cc3C)OCCCO2)c(C)c1", "TGI": "> 100"}
{"smiles": "CC(C)C1OC23CCCCC2C(C#N)(C#N)C1(C#N)C(=N)O3", "note": "(configuration not stated)", "TGI": 43.8}
{"smiles": "NC(CCCCP(=O)(O)O)C(=O)O", "note": "(configuration not stated)", "TGI": "> 100"}
{"smiles": "O=C(CC(=O)Nc1cccc(C(=O)O)c1)Nc1cccc(C(=O)O)c1", "TGI": "> 100"}
{"smiles": "O=C(NCCCCCCNC(=O)c1cccc2ccccc12)Nc1cccc2ccccc12", "TGI": "> 100"}
{"system": "IGROV1 ovarian", "experiment": "inhibition of tumour cell growth, NCI panel, 48 h", "units": {"TGI": "µM"}}
{"smiles": "CCC(C)(C)/C(CC(O)(C(F)(F)F)C(F)(F)F)=N\\O", "TGI": "> 100"}
{"smiles": "N#CSC#Cc1ccc(C#CSC#N)cc1", "TGI": 30.5}
{"smiles": "Cc1cc(C)c(S(=O)(=O)N2CCCN(S(=O)(=O)c3c(C)cc(C)cc3C)OCCCON(S(=O)(=O)c3c(C)cc(C)cc3C)CCCN(S(=O)(=O)c3c(C)cc(C)cc3C)OCCCO2)c(C)c1", "TGI": "> 100"}
{"smiles": "NC(CCCCP(=O)(O)O)C(=O)O", "note": "(configuration not stated)", "TGI": "> 100"}
{"smiles": "O=C(CC(=O)Nc1cccc(C(=O)O)c1)Nc1cccc(C(=O)O)c1", "TGI": "> 100"}
{"smiles": "O=C(NCCCCCCNC(=O)c1cccc2ccccc12)Nc1cccc2ccccc12", "TGI": "> 100"}
{"system": "K-562 leukemia", "experiment": "inhibition of tumour cell growth, NCI panel, 48 h", "units": {"TGI": "µM"}}
{"smiles": "CCC(C)(C)/C(CC(O)(C(F)(F)F)C(F)(F)F)=N\\O", "TGI": "> 100"}
{"smiles": "N#CSC#Cc1ccc(C#CSC#N)cc1", "TGI": "> 100"}
{"smiles": "Cc1cc(C)c(S(=O)(=O)N2CCCN(S(=O)(=O)c3c(C)cc(C)cc3C)OCCCON(S(=O)(=O)c3c(C)cc(C)cc3C)CCCN(S(=O)(=O)c3c(C)cc(C)cc3C)OCCCO2)c(C)c1", "TGI": "> 100"}
{"smiles": "CC(C)C1OC23CCCCC2C(C#N)(C#N)C1(C#N)C(=N)O3", "note": "(configuration not stated)", "TGI": "> 100"}
{"smiles": "NC(CCCCP(=O)(O)O)C(=O)O", "note": "(configuration not stated)", "TGI": "> 100"}
{"smiles": "O=C(CC(=O)Nc1cccc(C(=O)O)c1)Nc1cccc(C(=O)O)c1", "TGI": "> 100"}
{"smiles": "O=C(NCCCCCCNC(=O)c1cccc2ccccc12)Nc1cccc2ccccc12", "TGI": "> 100"}
{"system": "KM12 colon", "experiment": "inhibition of tumour cell growth, NCI panel, 48 h", "units": {"TGI": "µM"}}
{"smiles": "CCC(C)(C)/C(CC(O)(C(F)(F)F)C(F)(F)F)=N\\O", "TGI": "> 100"}
{"smiles": "N#CSC#Cc1ccc(C#CSC#N)cc1", "TGI": 36.8}
{"smiles": "Cc1cc(C)c(S(=O)(=O)N2CCCN(S(=O)(=O)c3c(C)cc(C)cc3C)OCCCON(S(=O)(=O)c3c(C)cc(C)cc3C)CCCN(S(=O)(=O)c3c(C)cc(C)cc3C)OCCCO2)c(C)c1", "TGI": "> 100"}
{"smiles": "NC(CCCCP(=O)(O)O)C(=O)O", "note": "(configuration not stated)", "TGI": "> 100"}
{"smiles": "O=C(CC(=O)Nc1cccc(C(=O)O)c1)Nc1cccc(C(=O)O)c1", "TGI": "> 100"}
{"smiles": "O=C(NCCCCCCNC(=O)c1cccc2ccccc12)Nc1cccc2ccccc12", "TGI": "> 100"}
{"system": "LOX IMVI melanoma", "experiment": "inhibition of tumour cell growth, NCI panel, 48 h", "units": {"TGI": "µM"}}
{"smiles": "CCC(C)(C)/C(CC(O)(C(F)(F)F)C(F)(F)F)=N\\O", "TGI": "> 100"}
{"smiles": "N#CSC#Cc1ccc(C#CSC#N)cc1", "TGI": 34.5}
{"smiles": "Cc1cc(C)c(S(=O)(=O)N2CCCN(S(=O)(=O)c3c(C)cc(C)cc3C)OCCCON(S(=O)(=O)c3c(C)cc(C)cc3C)CCCN(S(=O)(=O)c3c(C)cc(C)cc3C)OCCCO2)c(C)c1", "TGI": "> 100"}
